Reference: patent US20260000656A1, “ANTIFUNGAL AGENTS WITH ENHANCED ACTIVITY IN ACIDIC PH” (Scynexis, Inc., priority 2017, published 2026)
Read-outs that look alike come from different tables or passages of the source.

Assay: Plasma, vaginal secretion and vaginal tissue exposure after oral administration in mice
Type: in vivo
Settings: for AUC(0-t): po
Protocol: Female CD-1 mice (n=3/time point/dose group) were given SCY-078 via oral gavage for either one, two, or eight total doses ranging from 10 to 80 mg/kg, consisting of QD (once per day) and BID (twice per day) dose regimens, with and without loading doses, as follows: • QD (Day 1): 10, 20, 40, 80 mg/kg • BID (Day 1): 10/5, 20/10, 40/20, 80/40 mg/kg • BID repeat dose (Days 1-4): 10/5, 20/10 40/20, 80/40 mg/kg on Day 1; 5, […] mg/kg BID on Days 2 to 4
Blood, vulvo-vaginal tissue and vaginal secretions were collected pre-dose, and at 1, 2, 4, 6, 8, 12, 18 and 24 hours post-dose, following the final dose administered per group. Samples were then processed, extracted via protein precipitation and analyzed for SCY-078 via LC MS/MS.

- AUC(0-t) (female, CD-1, mouse, plasma, 10 mg/kg, oral gavage, QD 10 mg/kg (Day 1), read-out: AUC0-24 Plasma): 8330 ng·h/mL
- AUC(0-t) (female, CD-1, mouse, plasma, 20 mg/kg, oral gavage, QD 20 mg/kg (Day 1), read-out: AUC0-24 Plasma): 19700 ng·h/mL
- AUC(0-t) (female, CD-1, mouse, plasma, 40 mg/kg, oral gavage, QD 40 mg/kg (Day 1), read-out: AUC0-24 Plasma): 42300 ng·h/mL
- AUC(0-t) (female, CD-1, mouse, plasma, 80 mg/kg, oral gavage, QD 80 mg/kg (Day 1), read-out: AUC0-24 Plasma): 75500 ng·h/mL
- AUC(0-t) (female, CD-1, mouse, plasma, BID regimen, 10/5-80/40 mg/kg, read-out: AUC0-24 in plasma, range over doses): 7470 to 101000 ng·h/mL
- AUC(0-t) (female, CD-1, mouse, plasma, BID repeat dose regimen (Days 1-4), read-out: AUC0-24 in plasma, range over doses): 7470 to 101000 ng·h/mL
- AUC(0-t) (female, CD-1, mouse, plasma, QD regimen, 10-80 mg/kg, read-out: AUC0-24 in plasma, range over doses): 8330 to 75500 ng·h/mL
- AUC(0-t) (female, CD-1, mouse, plasma, oral gavage, BID 10/5 mg/kg (Day 1), read-out: AUC0-24 Plasma): 7470 ng·h/mL
- AUC(0-t) (female, CD-1, mouse, plasma, oral gavage, BID 20/10 mg/kg (Day 1), read-out: AUC0-24 Plasma): 16600 ng·h/mL
- AUC(0-t) (female, CD-1, mouse, plasma, oral gavage, BID 40/20 mg/kg (Day 1), read-out: AUC0-24 Plasma): 46500 ng·h/mL
- AUC(0-t) (female, CD-1, mouse, plasma, oral gavage, BID 80/40 mg/kg (Day 1), read-out: AUC0-24 Plasma): 101000 ng·h/mL
- AUC(0-t) (female, CD-1, mouse, plasma, oral gavage, BID repeat-dose 10/5 mg/kg (Days 1-4), read-out: AUC0-24 Plasma): 5120 ng·h/mL
- AUC(0-t) (female, CD-1, mouse, plasma, oral gavage, BID repeat-dose 20/10 mg/kg (Days 1-4), read-out: AUC0-24 Plasma): 14600 ng·h/mL
- AUC(0-t) (female, CD-1, mouse, plasma, oral gavage, BID repeat-dose 40/20 mg/kg (Days 1-4), read-out: AUC0-24 Plasma): 53000 ng·h/mL
- AUC(0-t) (female, CD-1, mouse, plasma, oral gavage, BID repeat-dose 80/40 mg/kg (Days 1-4), read-out: AUC0-24 Plasma): 143000 ng·h/mL
- AUC(0-t) (female, CD-1, mouse, vaginal secretion, 10 mg/kg, oral gavage, QD 10 mg/kg (Day 1), read-out: AUC0-24 Vaginal Secretion): 1320 ng·h/mL
- AUC(0-t) (female, CD-1, mouse, vaginal secretion, 20 mg/kg, oral gavage, QD 20 mg/kg (Day 1), read-out: AUC0-24 Vaginal Secretion): 1870 ng·h/mL
- AUC(0-t) (female, CD-1, mouse, vaginal secretion, 40 mg/kg, oral gavage, QD 40 mg/kg (Day 1), read-out: AUC0-24 Vaginal Secretion): 4410 ng·h/mL
- AUC(0-t) (female, CD-1, mouse, vaginal secretion, 80 mg/kg, oral gavage, QD 80 mg/kg (Day 1), read-out: AUC0-24 Vaginal Secretion): 12300 ng·h/mL
- AUC(0-t) (female, CD-1, mouse, vaginal secretion, oral gavage, BID 10/5 mg/kg (Day 1), read-out: AUC0-24 Vaginal Secretion): 1550 ng·h/mL
- AUC(0-t) (female, CD-1, mouse, vaginal secretion, oral gavage, BID 20/10 mg/kg (Day 1), read-out: AUC0-24 Vaginal Secretion): 4210 ng·h/mL
- AUC(0-t) (female, CD-1, mouse, vaginal secretion, oral gavage, BID 40/20 mg/kg (Day 1), read-out: AUC0-24 Vaginal Secretion): 10600 ng·h/mL
- AUC(0-t) (female, CD-1, mouse, vaginal secretion, oral gavage, BID 80/40 mg/kg (Day 1), read-out: AUC0-24 Vaginal Secretion): 17800 ng·h/mL
- AUC(0-t) (female, CD-1, mouse, vaginal secretion, oral gavage, BID repeat-dose 10/5 mg/kg (Days 1-4), read-out: AUC0-24 Vaginal Secretion): 4320 ng·h/mL
- AUC(0-t) (female, CD-1, mouse, vaginal secretion, oral gavage, BID repeat-dose 20/10 mg/kg (Days 1-4), read-out: AUC0-24 Vaginal Secretion): 8630 ng·h/mL
- AUC(0-t) (female, CD-1, mouse, vaginal secretion, oral gavage, BID repeat-dose 40/20 mg/kg (Days 1-4), read-out: AUC0-24 Vaginal Secretion): 38800 ng·h/mL
- AUC(0-t) (female, CD-1, mouse, vaginal secretion, oral gavage, BID repeat-dose 80/40 mg/kg (Days 1-4), read-out: AUC0-24 Vaginal Secretion): 120000 ng·h/mL
- AUC(0-t) (female, CD-1, mouse, vaginal secretions, BID regimen, 10/5-80/40 mg/kg, read-out: AUC0-24 in vaginal secretions, range over doses): 1550 to 17800 ng·h/mL
- AUC(0-t) (female, CD-1, mouse, vaginal secretions, BID repeat dose regimen (Days 1-4), read-out: AUC0-24 in vaginal secretions, range over doses): 4320 to 120000 ng·h/mL
- AUC(0-t) (female, CD-1, mouse, vaginal secretions, QD regimen, 10-80 mg/kg, read-out: AUC0-24 in vaginal secretions, range over doses): 1320 to 12300 ng·h/mL
- Kp (female, CD-1, mouse, vaginal tissue, oral, repeat-dosing, read-out: accumulation in vaginal tissue relative to plasma): > 10
- AUC0-24 Vaginal Tissue (oral gavage, BID 10/5 mg/kg (Day 1)): 24.6 µg·h/g
- AUC0-24 Vaginal Tissue (oral gavage, BID 20/10 mg/kg (Day 1)): 72.9 µg·h/g
- AUC0-24 Vaginal Tissue (oral gavage, BID 40/20 mg/kg (Day 1)): 204 µg·h/g
- AUC0-24 Vaginal Tissue (oral gavage, BID 80/40 mg/kg (Day 1)): 337 µg·h/g
- AUC0-24 Vaginal Tissue (oral gavage, BID repeat-dose 10/5 mg/kg (Days 1-4)): 24.4 µg·h/g
- AUC0-24 Vaginal Tissue (oral gavage, BID repeat-dose 20/10 mg/kg (Days 1-4)): 71.6 µg·h/g
- AUC0-24 Vaginal Tissue (oral gavage, BID repeat-dose 40/20 mg/kg (Days 1-4)): 275 µg·h/g
- AUC0-24 Vaginal Tissue (oral gavage, BID repeat-dose 80/40 mg/kg (Days 1-4)): 1798 µg·h/g
- AUC0-24 Vaginal Tissue (oral gavage, QD 10 mg/kg (Day 1)): 26.7 µg·h/g
- AUC0-24 Vaginal Tissue (oral gavage, QD 20 mg/kg (Day 1)): 53.6 µg·h/g
- AUC0-24 Vaginal Tissue (oral gavage, QD 40 mg/kg (Day 1)): 187 µg·h/g
- AUC0-24 Vaginal Tissue (oral gavage, QD 80 mg/kg (Day 1)): 171 µg·h/g
SMILES: CC(C)[C@@H](C)[C@@]1(C)CC[C@]2(C)[C@H]3CC[C@@H]4[C@@]5(COC[C@]4(C)[C@@H](OC[C@](C)(N)C(C)(C)C)[C@H](n4ncnc4-c4ccncc4)C5)C3=CC[C@@]2(C)[C@@H]1C(=O)O [SCY-078]
